In article PMC5542762 (ChemistryOpen, 2017):
Structures can show the parent of a compound that is named as a salt.

Experiments:
[1] = biological target: T1, EcTAL (Escherichia coli, UniProt P04968); experiment: HPLC of remaining L-threonine after FDAA derivatization; type: biochemical; conditions: L-threonine 100 mM, pyridoxal phosphate 10 μM; Na2CO3-NaHCO3 100 mM, pH 9.0, 30 °C
T1 sequence (P04968 1-514): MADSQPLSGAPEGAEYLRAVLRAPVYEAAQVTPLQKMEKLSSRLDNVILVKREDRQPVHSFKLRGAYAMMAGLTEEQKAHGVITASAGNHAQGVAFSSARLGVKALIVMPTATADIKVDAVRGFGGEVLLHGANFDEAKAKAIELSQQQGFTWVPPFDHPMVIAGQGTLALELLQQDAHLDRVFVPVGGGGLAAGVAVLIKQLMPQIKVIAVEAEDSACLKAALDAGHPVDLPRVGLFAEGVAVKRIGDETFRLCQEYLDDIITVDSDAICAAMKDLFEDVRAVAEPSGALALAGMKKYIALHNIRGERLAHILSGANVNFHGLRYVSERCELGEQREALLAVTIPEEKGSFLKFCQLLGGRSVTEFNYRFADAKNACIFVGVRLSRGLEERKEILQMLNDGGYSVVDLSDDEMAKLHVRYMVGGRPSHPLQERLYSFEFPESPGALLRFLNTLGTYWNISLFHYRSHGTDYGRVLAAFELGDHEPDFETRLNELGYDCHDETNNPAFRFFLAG

[2] = biological target: T2, PFDH (Pseudomonas sp. 101, UniProt P33160); experiment: NAD+ reduction at […] nm, 96-well plate; type: biochemical; conditions: sodium formate 20 mM, NAD+ 0.50 mM; Na2CO3-NaHCO3 100 mM, pH 9.0, room temperature
T2 sequence (P33160 2-401): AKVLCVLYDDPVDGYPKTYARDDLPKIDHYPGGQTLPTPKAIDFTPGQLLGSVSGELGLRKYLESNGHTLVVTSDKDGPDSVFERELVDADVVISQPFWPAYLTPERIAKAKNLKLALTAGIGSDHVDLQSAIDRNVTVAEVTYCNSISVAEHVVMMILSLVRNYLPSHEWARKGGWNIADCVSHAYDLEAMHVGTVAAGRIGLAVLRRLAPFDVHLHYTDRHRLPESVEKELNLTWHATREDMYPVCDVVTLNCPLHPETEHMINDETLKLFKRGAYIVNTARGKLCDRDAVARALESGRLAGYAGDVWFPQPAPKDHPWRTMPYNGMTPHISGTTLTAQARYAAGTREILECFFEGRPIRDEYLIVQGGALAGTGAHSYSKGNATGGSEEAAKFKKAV

Compound | HPLC of remaining L-threonine after FDAA derivatization [1] | NAD+ reduction at 340 nm, 96-well plate [2]
C[C@@H](O)[C@H](N)C(=O)O [L-threonine] | The activity of EcTAL toward L‐threonine was determined by measuring the decrease of threonine | 
O=CO [sodium formate] |  | the activity of the FDH toward the oxidation of formate were determined
